The values that follow come from article PMC7059139, “Inhibiting MARSs reduces hyperhomocysteinemia‐associated neural tube and congenital heart defects” (EMBO Molecular Medicine, 2020).

The target in assay [1] is T1, MARS2 (Mus musculus, UniProt Q499X9).
T1 construct: Flag-tagged, cDNA NM_175439.3
T1 sequence (Q499X9 47-586): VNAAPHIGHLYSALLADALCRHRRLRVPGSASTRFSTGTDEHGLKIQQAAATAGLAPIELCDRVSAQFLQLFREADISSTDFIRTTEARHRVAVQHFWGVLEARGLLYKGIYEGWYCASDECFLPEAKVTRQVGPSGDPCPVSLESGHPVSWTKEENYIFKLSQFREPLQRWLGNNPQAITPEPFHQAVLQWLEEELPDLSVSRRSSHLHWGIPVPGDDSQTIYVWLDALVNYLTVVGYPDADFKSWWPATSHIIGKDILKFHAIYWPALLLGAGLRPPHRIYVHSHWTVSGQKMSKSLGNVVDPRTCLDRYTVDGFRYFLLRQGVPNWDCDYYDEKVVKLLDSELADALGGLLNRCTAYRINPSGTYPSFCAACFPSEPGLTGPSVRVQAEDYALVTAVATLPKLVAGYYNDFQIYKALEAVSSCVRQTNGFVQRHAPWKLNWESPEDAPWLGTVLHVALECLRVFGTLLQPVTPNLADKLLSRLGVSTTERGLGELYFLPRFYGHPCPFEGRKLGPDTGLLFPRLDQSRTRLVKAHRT
The assay can be described thus: in vitro HTL production from Hcy ([…]), thin layer chromatography. Format: biochemical.

In assay [2] the target is T2, MARS (methionyl-tRNA synthetase) (Homo sapiens, UniProt P56192).
T2 construct: gene MARS1; Flag-tagged, cDNA NM_004990.3
T2 sequence (P56192 1-900): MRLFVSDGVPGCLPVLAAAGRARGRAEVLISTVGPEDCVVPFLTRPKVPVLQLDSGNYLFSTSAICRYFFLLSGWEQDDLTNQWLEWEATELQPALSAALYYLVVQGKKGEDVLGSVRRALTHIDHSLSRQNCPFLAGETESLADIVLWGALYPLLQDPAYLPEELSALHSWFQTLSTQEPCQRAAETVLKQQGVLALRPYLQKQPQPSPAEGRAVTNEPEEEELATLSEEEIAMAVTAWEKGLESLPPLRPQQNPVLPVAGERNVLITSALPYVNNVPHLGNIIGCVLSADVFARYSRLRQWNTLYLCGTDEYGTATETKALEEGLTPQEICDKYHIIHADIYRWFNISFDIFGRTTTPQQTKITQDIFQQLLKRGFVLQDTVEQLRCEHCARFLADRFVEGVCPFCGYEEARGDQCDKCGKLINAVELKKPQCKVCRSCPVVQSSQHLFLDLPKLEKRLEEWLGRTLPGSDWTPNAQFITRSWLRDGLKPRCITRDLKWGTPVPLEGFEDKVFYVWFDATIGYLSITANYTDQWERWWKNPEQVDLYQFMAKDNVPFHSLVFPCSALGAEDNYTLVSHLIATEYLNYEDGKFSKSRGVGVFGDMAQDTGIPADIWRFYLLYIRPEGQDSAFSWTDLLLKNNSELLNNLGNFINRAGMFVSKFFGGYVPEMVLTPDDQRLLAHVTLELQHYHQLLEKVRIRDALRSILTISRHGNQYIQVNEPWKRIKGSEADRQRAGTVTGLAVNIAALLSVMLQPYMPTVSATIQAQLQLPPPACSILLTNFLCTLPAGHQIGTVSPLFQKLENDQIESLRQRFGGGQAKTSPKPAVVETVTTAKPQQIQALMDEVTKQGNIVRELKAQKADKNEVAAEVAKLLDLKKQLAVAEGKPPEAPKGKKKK
Described as above. Format: biochemical.

Usually IC50 stands for the midpoint of a concentration-inhibition curve. Take `NC(=O)CSCCC(N)C(=O)O` (racemic) [compound 5, AHT]: the IC50 in assay [1] was 40 µM; in assay [2], 36 µM.
